Laboratory results: PubChem BioAssay (NCI)
Several values for one entry are separate records, joined by “and”; a condition that tells them apart may be missing. Equal values may be shown once.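 Dose response: 5 concentrations. Exposure: 48 h. Format: 96-well plates. Endpoint: linear interpolation; highest concentration if not reached. At the GI50, growth is halved. TGI marks complete inhibition of growth.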

Assays:
Assay in all cases: inhibition of tumour cell growth, NCI panel, 48 h
ACHN renal = tested on: ACHN renal
DU-145 prostate = tested on: DU-145 prostate
HL-60(TB) leukemia = tested on: HL-60(TB) leukemia
MCF7 breast = tested on: MCF7 breast
MOLT-4 leukemia = tested on: MOLT-4 leukemia
OVCAR-5 ovarian = tested on: OVCAR-5 ovarian
RXF 393 renal = tested on: RXF 393 renal
SF-539 CNS = tested on: SF-539 CNS
SK-MEL-5 melanoma = tested on: SK-MEL-5 melanoma
UACC-257 melanoma = tested on: UACC-257 melanoma

SMILES	GI50 (ACHN renal) [µM]	TGI (ACHN renal)	GI50 (DU-145 prostate) [µM]	TGI (DU-145 prostate)	GI50 (HL-60(TB) leukemia) [µM]	TGI (HL-60(TB) leukemia)	GI50 (MCF7 breast) [µM]	TGI (MCF7 breast)	GI50 (MOLT-4 leukemia)	TGI (MOLT-4 leukemia)	GI50 (OVCAR-5 ovarian) [µM]	TGI (OVCAR-5 ovarian)	GI50 (RXF 393 renal) [µM]	TGI (RXF 393 renal)	GI50 (SF-539 CNS) [µM]	TGI (SF-539 CNS)	GI50 (SK-MEL-5 melanoma)	TGI (SK-MEL-5 melanoma)	GI50 (UACC-257 melanoma)	TGI (UACC-257 melanoma)
Cc1cc(-c2ccco2)cc(C)c1/C=C/c1cncc(-c2nn[nH]n2)c1	> 25	> 25 µM	> 25	> 25 µM	> 25	> 25 µM	> 25	> 25 µM	> 25 µM	> 25 µM	> 25	> 25 µM	> 25	> 25 µM	> 25	> 25 µM	> 25 µM	> 25 µM	> 25 µM	> 25 µM
COc1cccc(/C=C2/S/C(=N/Nc3nc(C)c(C(C)=O)s3)NC2=O)c1O		51.6 µM		> 100 µM		46 µM		> 100 µM				94.2 µM		93.2 µM		> 100 µM		43.5 µM		86.2 µM
COc1cccc(N2C(=O)C3CC(CC(C)(C)C)c4c([nH]c5ccccc45)C3C2=O)c1 (stereo not given)		> 10 µM		> 10 µM		> 10 µM		> 10 µM		> 10 µM		> 10 µM		> 10 µM		8.42 µM		> 10 µM		> 10 µM
COC(=O)C1=Nc2ccc(F)cc2/C1=C/c1sc(=S)[nH]c1O	0.0697	18 µM	0.222	> 36.2 µM	0.263		0.26	15 µM	0.236 µM	> 100 µM	0.91	> 100 µM	0.0762	4.1 µM	0.0743	0.751 µM	0.131 µM	0.745 µM	6.13 µM	> 100 µM
Cc1ccc(-c2nc(C(Cl)Cl)nc3cc(C)nn23)cc1	0.783	3.6 µM	0.432	2.81 µM	1.33	5.46 µM	1.97	> 100 µM	1.82 µM	> 100 µM	2.22	6.72 µM	0.673	2.36 µM	4.14	> 100 µM	3.5 µM	> 100 µM	3.26 µM	> 100 µM
CCN(CC)C(=O)CCCCCn1c2ccccc2c2c3c(c4c5ccccc5[nH]c4c21)C(=O)N(O)C3=O			6.5	> 100 µM	2.8	7.63 µM	2.94	> 100 µM	2.05 µM	6.13 µM	31.1	> 100 µM	4.01	> 100 µM	1.92	4.27 µM	2 µM	5.02 µM	10.7 µM	55.1 µM
CCC1=C(c2ccc(OC)cc2)CC[C@]2(CCNC2=O)[C@@H]1C		66.8 µM		> 100 µM		69.2 µM		46.7 µM		39.7 µM		> 100 µM		> 100 µM		54.8 µM		31.1 µM		79.1 µM
Cc1cc2c3c(c1)CCCN3CCC2		> 10 µM		> 10 µM		> 10 µM		> 10 µM		> 10 µM				> 10 µM		> 10 µM		> 10 µM		> 10 µM
O=CC(O)C(O)C(OC1OC(CO)C(O)C(O)C1O)C(O)CO (stereo not given) (tested in a mixture with another compound)		> 100 µM		> 100 µM		64.1 µM		> 100 µM				> 100 µM		> 100 µM		> 100 µM		> 100 µM		> 100 µM
CC(C)C/C(=N\NC(=O)c1ccncc1)c1cc(Cl)ccc1O	0.157	> 41.1 µM	0.379	28.9 µM	0.295	2.26 µM	0.484	12.3 µM	0.29 µM	20.8 µM	0.825	38.9 µM	2.37	> 41 µM	0.363	5.58 µM	0.562 µM	2.53 µM	0.41 µM	6.62 µM
CCN(CC)Cc1cc(Nc2cc(C(F)(F)F)c(C#N)c3nc4ccccc4n23)ccc1O	2.24	10.3 µM	2.78	15.7 µM	2.96	8.37 µM	1.75	10.7 µM	2.46 µM	75 µM	4.84	23.4 µM	1.8	5.81 µM	2.7	11 µM	0.271 µM	1.66 µM	1.93 µM	7.86 µM
N#Cc1cccc(C2C3=C(COC3=O)N(CCO)c3cc4c(cc32)CCC4)c1 (stereo not given)	0.277	> 50 µM	0.191	7.29 µM	0.132	0.383 µM	0.0411	> 50 µM	0.203 µM	> 50 µM	0.237	> 50 µM	0.119	> 50 µM	0.112	0.356 µM	0.146 µM	2.87 µM	> 50 µM	> 50 µM
Oc1ccc(-c2[nH]c3ccccc3c2-c2nc3ccccc3o2)cc1	3.58	14.9 µM	5.69	18.3 µM	12.1	49.5 µM	2.83	10.5 µM	6.49 µM	41.3 µM	4.49	17.2 µM	4.24	18.9 µM	7.56	22.1 µM	2.16 µM	7.8 µM	4.59 µM	18.3 µM
COc1cc2c(cc1OC)C(SC)C(=O)N(Cc1cccc(OC)c1OC)CC2 (stereo not given)		> 81.6 µM		> 23 µM		5.63 µM		> 42.6 µM		45.5 µM		98.3 µM		> 48.1 µM		9.13 µM		9.52 µM		32.2 µM
Cc1ccc(NC2=CC(=O)C(=O)c3ccccc32)c(C)c1	3.71	13.9 µM	1.58	2.93 µM	2.59	8.06 µM	0.905	4.77 µM	2.88 µM	16.6 µM	6.66	21.6 µM	9.59	21.6 µM	3.63	13.2 µM	1.44 µM	2.79 µM	1.96 µM	4.44 µM
O=C(/C=C/c1ccc(Cl)cc1)c1ccc(Cl)s1		> 100 µM		> 100 µM		> 100 µM		44.6 µM		> 100 µM		> 100 µM		85.8 µM		> 100 µM				> 100 µM
Cc1ccc(O)cc1Nc1ccnc2cc(-c3ccccn3)ccc12	0.611	5.16 µM	1.38	8.28 µM	4.69	9.53 µM	2.71	6.07 µM	4.18 µM	10.7 µM	2.98	9.21 µM	1.95	5.37 µM	3.08	6.68 µM	3.6 µM	7.14 µM	3.09 µM	6.25 µM
CON(C)C(=O)C(C)NC(=O)OC(C)(C)C (stereo not given)		> 100 µM		> 100 µM		> 100 µM		> 100 µM		> 100 µM		> 100 µM		> 100 µM		> 100 µM		> 100 µM		> 100 µM
N=C(N)c1ccc(OCCCCCOc2ccc(C(=N)N)cc2)cc1	18.5	> 50 µM and 79.2 µM and > 100 µM	5.64	11.9 µM and 27.9 µM and 28.7 µM	7.34	24 µM and 56 µM and > 100 µM	2.59	14.4 µM and 25.9 µM and 28.5 µM	23.3 µM and 12 µM and 28.3 µM	> 50 µM and 51.8 µM and > 100 µM	34	> 50 µM and 78.3 µM and > 100 µM	6.75	17.5 µM and 38.6 µM	8.36	20.7 µM and 27.1 µM	1.02 µM and 2.29 µM and 10.1 µM	3.33 µM and 11.7 µM and 29.5 µM	4.44 µM and 7.51 µM and 15.5 µM	26.3 µM and 23.7 µM and 48.9 µM
C=C(C)[C@@H]1CC[C@]2(C(=O)n3ccnc3)CC[C@]3(C)[C@H](CC[C@@H]4[C@@]5(C)CCCNC(C)(C)[C@@H]5CC[C@]43C)[C@@H]12			1.78	3.61 µM	1.55	3.47 µM	1.5	3.23 µM			2.25	6.4 µM	1.5	2.92 µM	1.58	3.03 µM	1.56 µM	2.9 µM	2.02 µM	4.09 µM
O=C1c2ccccc2-c2c1c1ccc([N+](=O)[O-])cc1c(=O)n2CCCCl	4.29	> 100 µM	40.4	> 100 µM	52.4	> 100 µM	1.12	> 100 µM	2.1 µM	> 100 µM	> 100	> 100 µM	> 100	> 100 µM			0.874 µM	5.89 µM	> 100 µM	> 100 µM
COc1cc(OC)c(/C=C/C(=O)c2c(N)cc(OC)cc2OC)c(OC)c1	0.722	> 100 µM	0.608	> 100 µM	0.3	> 100 µM	0.395	> 100 µM	1.02 µM	> 100 µM	2.51	> 100 µM	0.623	4.7 µM	0.365	> 25.2 µM	0.332 µM	> 100 µM		
